Reference: US8173635B2, “Kinase inhibitors” (Vertex Pharmaceuticals Incorporated, priority 2007, dated 2012)
pKi: −log10 of the molar value.

Key:
Format in all cases: biochemical
[1] = target: PKC theta kinase (Homo sapiens, UniProt Q04759); experiment: PKC theta kinase inhibition, coupled-enzyme NADH absorbance assay (Ki); details: 240 μM ATP, 18 nM PKC theta, 30° C.; read-out: Ki PKC theta
Description: (§1) An assay buffer solution was prepared which consisted of 100 mM HEPES (pH 7.5), 10 mM MgCl2, 25 mM NaCl, 0.1 mM EDTA and 0.01% Brij. […] To 60 μL of this enzyme buffer, in a 384 well plate, was added 2 μL of VRT stock solution in DMSO. The mixture was allowed to equilibrate for 10 mins at 30° C. […] Ki values were calculated from initial rate data by non-linear regression using the Prism software package (Prism 4.0a, Graphpad Software, San Diego, Calif.).

[2] = target: PKC delta kinase (Homo sapiens, UniProt Q05655); experiment: PKC delta kinase inhibition, coupled-enzyme NADH absorbance assay (Ki); details: 150 μM ATP, 46 nM PKC delta, 30° C.; read-out: Ki PKC delta
Description: as §1, with “To 16” for “To 60”, “added 1” for “added 2”

[3] = target: PKC alpha kinase (Homo sapiens, UniProt P17252); experiment: PKC alpha kinase inhibition, coupled-enzyme NADH absorbance assay (Ki); details: 130 μM ATP, 4.5 nM PKC alpha, 30° C.; read-out: Ki PKC alpha
Description: An assay buffer solution was prepared which consisted of 100 mM HEPES (pH 7.5), 10 mM MgCl2, 25 mM NaCl, 0.1 mM EDTA, 100 μM CaCl2 and 0.01% Brij. […] To 16 μL of this enzyme buffer, in a 384 well plate, was added 1 μL of VRT stock solution in DMSO. The mixture was allowed to equilibrate for 10 mins at 30° C. The enzyme reaction was initiated by the addition of 16 μL stock ATP solution prepared in assay buffer to a final assay concentration of 130 μM. Initial rate data was determined from the rate of change of absorbance at 340 nm (corresponding to stoichiometric consumption of NADH) using a Molecular Devices Spectramax plate reader (Sunnyvale, Calif.) over 15 mins at 30° C. […] Ki values were calculated from initial rate data by non-linear regression using the Prism software package (Prism 4.0a, Graphpad Software, San Diego, Calif.).

Chain of PKC theta kinase (Q04759 whole entry): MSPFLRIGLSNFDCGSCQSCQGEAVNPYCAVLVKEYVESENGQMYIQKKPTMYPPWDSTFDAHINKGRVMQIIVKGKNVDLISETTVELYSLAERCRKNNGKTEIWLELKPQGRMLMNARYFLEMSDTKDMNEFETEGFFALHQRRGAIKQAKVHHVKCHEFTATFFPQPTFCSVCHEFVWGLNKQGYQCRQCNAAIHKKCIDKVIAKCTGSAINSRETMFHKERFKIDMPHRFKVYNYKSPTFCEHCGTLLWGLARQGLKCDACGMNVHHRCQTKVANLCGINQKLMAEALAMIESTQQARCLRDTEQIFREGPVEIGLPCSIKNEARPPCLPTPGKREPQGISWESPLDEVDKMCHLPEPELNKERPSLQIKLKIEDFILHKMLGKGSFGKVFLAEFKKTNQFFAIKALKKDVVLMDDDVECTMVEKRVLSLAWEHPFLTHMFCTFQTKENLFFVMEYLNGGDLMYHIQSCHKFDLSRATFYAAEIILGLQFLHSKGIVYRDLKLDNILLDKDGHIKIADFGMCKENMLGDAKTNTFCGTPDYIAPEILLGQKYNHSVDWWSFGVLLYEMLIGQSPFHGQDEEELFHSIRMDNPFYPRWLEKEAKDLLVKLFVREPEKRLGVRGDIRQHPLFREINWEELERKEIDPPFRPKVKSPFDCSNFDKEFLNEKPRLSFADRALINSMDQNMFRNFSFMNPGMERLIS
Chain of PKC delta kinase (Q05655 whole entry): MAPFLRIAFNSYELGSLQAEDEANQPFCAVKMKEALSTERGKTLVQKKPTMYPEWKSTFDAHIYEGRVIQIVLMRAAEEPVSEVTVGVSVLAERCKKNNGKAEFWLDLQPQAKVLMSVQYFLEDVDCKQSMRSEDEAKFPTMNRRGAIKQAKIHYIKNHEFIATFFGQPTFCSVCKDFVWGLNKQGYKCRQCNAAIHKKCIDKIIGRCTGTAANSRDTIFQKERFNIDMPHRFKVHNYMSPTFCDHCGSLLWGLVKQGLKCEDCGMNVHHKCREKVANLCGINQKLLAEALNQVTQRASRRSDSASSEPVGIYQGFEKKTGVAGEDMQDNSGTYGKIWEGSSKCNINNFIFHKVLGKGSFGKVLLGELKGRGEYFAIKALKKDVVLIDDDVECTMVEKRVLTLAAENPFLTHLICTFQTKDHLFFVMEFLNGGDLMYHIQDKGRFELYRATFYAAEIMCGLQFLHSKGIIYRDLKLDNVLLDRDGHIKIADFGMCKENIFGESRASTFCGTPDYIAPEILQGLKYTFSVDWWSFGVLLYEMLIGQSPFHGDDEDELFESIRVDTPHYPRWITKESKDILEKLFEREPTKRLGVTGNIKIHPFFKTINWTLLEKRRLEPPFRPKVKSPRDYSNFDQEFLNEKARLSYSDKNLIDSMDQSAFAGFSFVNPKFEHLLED

Compound	pKi [1]	pKi [2]	pKi [3]
CCSc1cc(-c2ccnc3[nH]ncc23)cc(C(C)(C#N)CC)c1 (stereo not drawn) [Compound 102]	> 6.30	< 5.70	> 5.55
CCC(C)(C#N)c1cc(-c2ccnc3[nH]ncc23)cc(C(C)F)c1 (stereo not drawn) [Compound 105]	> 6.30	< 5.70	> 5.55
CCC(F)c1cc(-c2ccnc3[nH]ncc23)cc(C(C)(C#N)CC)c1 (stereo not drawn) [Compound 106]	> 6.30	< 5.70	> 5.55
CCC(C)(C#N)c1cc(CCC(F)F)cc(-c2ccnc3[nH]ncc23)c1 (stereo not drawn) [Compound 108]	> 6.30	< 5.70	< 5.92
CCC(C)(C#N)c1cc(-c2ccnc3[nH]ncc23)cc(C(C)(F)F)c1 (stereo not drawn) [Compound 111]	> 7.30	> 5.55	> 6.30
CC(C)(C)c1n[nH]c2nccc(-c3cc(Br)cc(C(C)(C)C#N)c3)c12 [Compound 112]	< 6.15	< 5.70	< 5.92
N#CC1(c2cc(CCO)cc(-c3ccnc4[nH]ncc34)c2)CC1 [Compound 114]	> 7.30	< 5.70	< 5.92
CC(C#N)(Cc1ccccn1)c1cccc(-c2ccnc3[nH]ncc23)c1 (stereo not drawn) [Compound 115]	< 6.15	< 5.70	< 5.92
CCC(C)(C#N)c1cc(C=O)cc(-c2ccnc3[nH]ncc23)c1 (stereo not drawn) [Compound 120]	> 6.30	< 5.70	< 5.92
CCC(C)(C#N)c1cc(CO)cc(-c2ccnc3[nH]ncc23)c1 (stereo not drawn) [Compound 121]	> 6.30	< 5.70	< 5.92
N#CC1(c2cc(-c3ccnc4[nH]ncc34)cc(C(F)(F)CN)c2)CC1 [Compound 122]	> 7.30	> 5.55	> 5.55
CCC(C)(C#N)c1cc(CCN)cc(-c2ccnc3[nH]ncc23)c1 (stereo not drawn) [Compound 127]	> 6.30	< 5.70	< 5.92
N#CC1(c2cc(CCN)cc(-c3ccnc4[nH]ncc34)c2)CC1 [Compound 128]	> 6.30	< 5.70	< 5.92
CCC(C)(CN)c1cc(Cl)cc(-c2ccnc3[nH]ncc23)c1 (stereo not drawn) [Compound 133]	> 7.30	> 6.30	> 6.30
C#CCC(C)(CN)c1cccc(-c2ccnc3[nH]ncc23)c1 (stereo not drawn) [Compound 135]	> 7.30	> 7.30	> 7.30
CC(F)c1cc(-c2ccnc3[nH]ncc23)cc(C(C)(C)CN)c1 (stereo not drawn) [Compound 136]	> 7.30	> 5.55	> 5.55
CCC(C)(CN(C)C)c1cccc(-c2ccnc3[nH]ncc23)c1 (stereo not drawn) [Compound 138, 2-(3-(1H-pyrazolo[3,4-b]pyridin-4-yl)phenyl)-N,N,2-trimethylbutan-1-amine]	> 6.30	> 5.55	> 5.55
CCC(C)(CN)c1cc(-c2ccnc3[nH]ncc23)cc(C(F)(F)F)c1 (stereo not drawn) [Compound 139]	> 7.30	> 6.30	> 6.30
NCC1(c2cc(-c3ccnc4[nH]ncc34)cc(C(F)(F)F)c2)CCC1 [Compound 140]	> 6.30	> 5.55	> 5.55
C/C=C\c1cc(-c2ccnc3[nH]ncc23)cc(C(C)(CC)CN)c1 (stereo not drawn) [Compound 143]	> 6.30	> 6.30	> 5.55
CCC(C)(CN)c1cc(C)cc(-c2ccnc3[nH]ncc23)c1 (stereo not drawn) [Compound 144]	> 7.30	> 6.30	> 6.30

Second part, the molecule after the results:

pKi [1]	pKi [2]	pKi [3]	Compound
< 6.68	< 5.55	< 6.41	CC(C#N)(Cc1ccccc1)c1cccc(-c2ccnc3[nH]ncc23)c1 (stereo not drawn) [Compound 100]
> 7.30	< 5.55	> 5.55	CCC(C)(C#N)c1cc(CCO)cc(-c2ccnc3[nH]ncc23)c1 (stereo not drawn) [Compound 101]
> 7.30	< 5.70	> 5.55	CCC(C)(C#N)c1cc(CCCO)cc(-c2ccnc3[nH]ncc23)c1 (stereo not drawn) [Compound 103]
> 6.30	> 5.55	> 5.55	CC#CCC(C)(C#N)c1cccc(-c2ccnc3[nH]ncc23)c1 (stereo not drawn) [Compound 104]
> 6.30	< 5.70	> 5.55	CCC(C)(C#N)c1cc(CCCF)cc(-c2ccnc3[nH]ncc23)c1 (stereo not drawn) [Compound 107]
> 6.30	< 5.70	> 5.55	CCC(C)(C#N)c1cc(CCCOC)cc(-c2ccnc3[nH]ncc23)c1 (stereo not drawn) [Compound 109]
> 7.30	< 5.70	> 6.30	CCC(C)(C#N)c1cc(-c2ccnc3[nH]ncc23)cc(C(F)F)c1 (stereo not drawn) [Compound 110]
> 6.30	< 5.70	< 5.92	CCC(C)(C#N)c1cc(CC(F)(F)F)cc(-c2ccnc3[nH]ncc23)c1 (stereo not drawn) [Compound 113]
< 6.15	< 5.70	< 5.92	CC(C#N)(Cc1cccnc1)c1cccc(-c2ccnc3[nH]ncc23)c1 (stereo not drawn) [Compound 116]
< 6.15	< 5.70	< 5.92	CCC(C)(C#N)c1cc(-c2ccnc3[nH]ncc23)cc(C(F)(F)CCC2CCCC2)c1 (stereo not drawn) [Compound 117]
< 6.15	< 5.70	< 5.92	CCC(C)(C#N)c1cc(-c2ccnc3[nH]ncc23)cc(C(F)(F)CCC2CCCCC2)c1 (stereo not drawn) [Compound 118]
< 6.15	< 5.70	< 5.92	CCC(C)(C#N)c1cc(-c2ccnc3[nH]ncc23)cc(C(F)(F)CC2CCCCC2)c1 (stereo not drawn) [Compound 119]
> 7.30	> 5.55	> 5.55	CNCC(F)(F)c1cc(-c2ccnc3[nH]ncc23)cc(C2(C#N)CC2)c1 [Compound 123]
< 6.15	< 5.70	< 5.92	CCC(C)(C#N)c1cc(/C=C/C#N)cc(-c2ccnc3[nH]ncc23)c1 (stereo not drawn) [Compound 124]
> 6.30	< 5.70	< 5.92	CCCc1cc(-c2ccnc3[nH]ncc23)cc(C2(CC#N)CCC2)c1 [Compound 125]
> 6.30	< 5.70	< 5.92	CCC(C)(C#N)c1cc(CC#N)cc(-c2ccnc3[nH]ncc23)c1 (stereo not drawn) [Compound 126]
> 7.30	> 7.30	> 6.30	CC(CN)(CC1CC1)c1cccc(-c2ccnc3[nH]ncc23)c1 (stereo not drawn) [Compound 129]
> 7.30	> 5.55	> 5.55	CCCc1cc(-c2ccnc3[nH]ncc23)cc(C(C)(CC)CN)c1 (stereo not drawn) [Compound 130]
> 7.30	> 5.55	> 6.30	CCc1cc(-c2ccnc3[nH]ncc23)cc(C(C)(CC)CN)c1 (stereo not drawn) [Compound 131]
> 6.30	> 5.55	> 5.55	CCc1ccc(-c2ccnc3[nH]ncc23)cc1C(C)(C)CN [Compound 132]
> 7.30	> 6.30	> 6.30	C=CCC(C)(CN)c1cccc(-c2ccnc3[nH]ncc23)c1 (stereo not drawn) [Compound 134]
> 6.30	< 5.55	< 5.55	CCC(C)(CN)c1cc(CC(C)C)cc(-c2ccnc3[nH]ncc23)c1 (stereo not drawn) [Compound 137]
> 7.30	> 6.30	> 6.30	CCC(C)(CNC)c1cccc(-c2ccnc3[nH]ncc23)c1 (stereo not drawn) [Compound 141]
> 6.30	> 5.55	> 5.55	COc1cc(-c2ccnc3[nH]ncc23)cc(C(C)(C)CN)c1 [Compound 142]
